Tests used:
[1] = target: T1, restriction enzyme BamH1 (Bacillus amyloliquefaciens, UniProt P23940); assay type: biochemical; settings: exposure to 17,500 Gy; 25 mM potassium phosphate buffer; 3 mM adenosine, 1 mM MnCl2
T1 sequence (P23940 1-213): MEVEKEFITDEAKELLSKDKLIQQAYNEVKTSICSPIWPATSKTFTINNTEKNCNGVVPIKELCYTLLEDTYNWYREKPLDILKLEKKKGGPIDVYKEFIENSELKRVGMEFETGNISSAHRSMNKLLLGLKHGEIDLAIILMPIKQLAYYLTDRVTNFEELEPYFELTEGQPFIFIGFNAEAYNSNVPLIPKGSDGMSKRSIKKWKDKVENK
Procedure: Post-irradiation functionality of restriction enzyme BamH1 after indicated treatment and incubation with 1-DNA.

[2] = test system: hFOB cells; experiment: apoptosis assay (Annexin V / PI flow cytometry) of hFOB cells 6 days after IR; assay type: cell-based, Human; settings: for radioprotection of a mammalian cell line: agent alone; for Annexin V + / Annexin-V + PI / Live Cells / PI: hFOB cells 6 days after IR, adenosine 10 mM, MnCl2 0.25 mM, added 3 h before IR
Procedure: Apoptosis of Human Fetal Osteoblastic 1.19 cell line from ATCC (hFOB) was determined by death and apoptotic markers (Annexin V and propidium iodide PI) using a flow cytometry assay. In brief, hFOB cells were cultured in DMEM-F12 with 10% fetal bovine serum, 2.5 mM L-glutamine and 1% antibiotic to full confluency followed by treatment for experimental groups with adenosine (10 mM) or MnCl2 (0.25 mM) or adenosine and MnCl2 for 6 days period starting 3 h before IR. Apoptotic cell death was measured by flow cytometry with Annexin V and PI staining 6 days after IR. hFOB cells also were plated (1×10^3/well, 6-well plate) for clonogenic survival assay after IR. Colonies were counted 10 days later.
For the assays, adenosine+/−0.25 mM Mn(II) was added 3 hours prior to irradiation. Cells were assayed 6 days after irradiation by flow cytometry. Annexin-V conjugates allow for the identification of cell surface changes that occur early during the apoptotic process using flow cytometry. Early in the apoptotic process, phosphatidylserine becomes exposed on the cell surface. Propidium Iodide (PI) in un-fixed cells discriminates between apoptosis and necrosis on the basis of dye exclusion. While necrotic cells lose membrane integrity early on in their death throws, apoptotic cells may have compromised membranes.

[3] = test system: Purified E. coli proteins; experiment: protein carbonyl assay of purified E. coli proteins irradiated in vitro; assay type: biochemical; settings: for prevention of ionizing radiation (IR)-induced protein oxidation (carbonylation) in vitro: purified E. coli proteins incubated with the agent during irradiation, Carbonyl Western blot
Procedure: Purified E. coli proteins were incubated in PP-, EC-, or DR-ultra-filtrated extract during irradiation, and subjected to a protein carbonyl assay.
Purified E. coli proteins were incubated with the indicated agents.

[Cl][Mn][Cl] [Mn, MnCl2]
BamH1 functionality after irradiation [1]: not | radioprotection of a mammalian cell line [2]: radioprotective | Annexin V + ([2]; 0 Gy): 0% | Annexin-V + PI ([2]; 0 Gy): 0% | Live Cells ([2]; 0 Gy): 86% | PI ([2]; 0 Gy): 14% | Annexin V + ([2]; 8 Gy): 21% | Annexin-V + PI ([2]; 8 Gy): 2% | Live Cells ([2]; 8 Gy): 70% | PI ([2]; 8 Gy): 7%

Nc1ncnc2c1ncn2[C@@H]1O[C@H](CO)[C@@H](O)[C@H]1O [Adenosine, adenosine]
protection of proteins from oxidation during irradiation ([3]; potassium phosphate buffer (PPB/25 mM)+15 mM adenosine, compared to buffer alone): highly protected from oxidation | prevention of ionizing radiation (IR)-induced protein oxidation (carbonylation) in vitro [3]: prevent ionizing radiation (IR)-induced protein oxidation in vitro | BamH1 functionality after irradiation [1]: not | radioprotection of a mammalian cell line [2]: radioprotective | Annexin V + ([2]; 0 Gy): 2% | Annexin-V + PI ([2]; 0 Gy): 1% | Live Cells ([2]; 0 Gy): 85% | PI ([2]; 0 Gy): 13% | Annexin V + ([2]; 8 Gy): 3% | Annexin-V + PI ([2]; 8 Gy): 2% | Live Cells ([2]; 8 Gy): 85% | PI ([2]; 8 Gy): 10%

O=c1ccn([C@@H]2O[C@H](CO)[C@@H](O)[C@H]2O)c(=O)[nH]1 [uridine]
prevention of ionizing radiation (IR)-induced protein oxidation (carbonylation) in vitro [3]: prevent ionizing radiation (IR)-induced protein oxidation in vitro
